This note sets out measurements from ChEMBL document CHEMBL5725377, “BET bromodomain inhibitors and therapeutic methods using the same” (2017).

pKi: −log10 of the molar value.

Usually pKi stands for the negative decadic logarithm of the Ki, by convention in mol/L. A lower pKi goes with a large Ki.

The target of experiment [1] is T1, Bromodomain-containing protein 3 (Homo sapiens, UniProt Q15059). Nature of the experiment: (§1) FP Competitive Binding Assay (No.350): Fluorescence Polarization (FP) competitive binding studies (see above) were carried out using the FAM labeled fluorescent probe Cpd. No. 350 to determine binding affinities of representative compounds to both BD1 and BD2 of BRD2, BRD3, and BRD4 proteins. Equilibrium dissociation constants (Id) values of Cpd. […] Final Cpd. […] Kd values of Cpd. For orientation: Polarisation of emitted light reports the rotation of a fluorescent probe.
T1 sequence (Q15059 whole entry): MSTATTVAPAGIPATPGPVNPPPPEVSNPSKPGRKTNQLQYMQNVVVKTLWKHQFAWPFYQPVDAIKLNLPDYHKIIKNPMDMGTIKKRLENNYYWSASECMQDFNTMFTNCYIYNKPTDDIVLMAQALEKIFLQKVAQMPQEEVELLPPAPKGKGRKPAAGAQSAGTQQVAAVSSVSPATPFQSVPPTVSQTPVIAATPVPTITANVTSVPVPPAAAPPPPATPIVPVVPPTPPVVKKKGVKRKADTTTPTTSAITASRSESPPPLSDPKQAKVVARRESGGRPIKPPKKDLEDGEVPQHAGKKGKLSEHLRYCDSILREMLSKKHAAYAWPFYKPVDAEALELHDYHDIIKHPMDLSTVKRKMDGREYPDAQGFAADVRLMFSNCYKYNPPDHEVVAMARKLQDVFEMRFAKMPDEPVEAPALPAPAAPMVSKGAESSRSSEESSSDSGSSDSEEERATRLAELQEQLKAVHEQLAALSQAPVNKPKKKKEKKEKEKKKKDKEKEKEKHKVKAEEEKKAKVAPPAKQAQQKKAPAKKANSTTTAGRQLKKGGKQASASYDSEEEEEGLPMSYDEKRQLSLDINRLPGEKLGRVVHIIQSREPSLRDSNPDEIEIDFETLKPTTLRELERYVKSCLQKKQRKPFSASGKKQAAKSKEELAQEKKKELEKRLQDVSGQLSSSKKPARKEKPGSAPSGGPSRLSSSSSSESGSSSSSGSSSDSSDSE

Experiment [2] deals with Bromodomain-containing protein 4 (Homo sapiens, UniProt O60885). The experiment is described as §1.
Experiment [3] addresses T2, Bromodomain-containing protein 2 (Homo sapiens, UniProt P25440). The experiment is described as §1.
In experiment [4] the target is T1, Bromodomain-containing protein 3. The description is as §1. The source holds these as a separate data set.
Experiment [5] addresses T2, Bromodomain-containing protein 2. The description is as §1. This is another data set of the same source.

T2 sequence (P25440 whole entry): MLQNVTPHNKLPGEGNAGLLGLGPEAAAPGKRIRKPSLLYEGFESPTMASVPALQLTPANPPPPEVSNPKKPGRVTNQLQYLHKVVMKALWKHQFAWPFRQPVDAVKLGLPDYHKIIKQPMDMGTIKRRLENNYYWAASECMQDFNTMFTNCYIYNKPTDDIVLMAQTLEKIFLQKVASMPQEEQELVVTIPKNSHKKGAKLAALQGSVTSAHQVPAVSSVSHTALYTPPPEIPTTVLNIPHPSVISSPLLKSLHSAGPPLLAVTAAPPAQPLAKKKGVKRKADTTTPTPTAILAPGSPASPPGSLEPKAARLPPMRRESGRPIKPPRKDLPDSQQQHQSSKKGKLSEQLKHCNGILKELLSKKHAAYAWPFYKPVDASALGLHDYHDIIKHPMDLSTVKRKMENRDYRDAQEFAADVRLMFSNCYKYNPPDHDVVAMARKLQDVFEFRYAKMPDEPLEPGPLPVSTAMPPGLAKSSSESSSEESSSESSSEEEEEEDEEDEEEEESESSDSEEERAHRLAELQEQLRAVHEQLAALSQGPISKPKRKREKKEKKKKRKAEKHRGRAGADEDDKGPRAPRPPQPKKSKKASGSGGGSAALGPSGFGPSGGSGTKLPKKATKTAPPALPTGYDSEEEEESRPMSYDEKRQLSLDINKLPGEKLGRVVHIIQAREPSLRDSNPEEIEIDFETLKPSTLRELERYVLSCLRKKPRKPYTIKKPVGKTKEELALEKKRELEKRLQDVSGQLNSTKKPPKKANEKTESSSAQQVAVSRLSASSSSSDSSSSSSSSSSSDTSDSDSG

In the case of `COc1cc2c(cc1-c1c(C)noc1C)[nH]c1nc(C)nc(-c3cc(C(=O)NC4CCN(C)CC4)cc(C(C)(C)C)c3)c12`, the pKi is 8.96 in experiment [1]; 8.05 in experiment [2]; 8.66 in experiment [3]; 8.20 in experiment [4]; 8.28 in experiment [5].
The matching figures for `COc1cc2c(cc1-c1c(C)noc1C)[nH]c1nc(C)nc(-c3ccc(NC(=O)N4CCN(C)CC4)c4ccccc34)c12`: 9.09, 7.96, 8.34, 8.12 and 8.59.
For `COc1cc2c(cc1-c1c(C)noc1C)[nH]c1nc(C)nc(-c3ccc(NC(=O)N4CCN(C5COC5)CC4)c4ccccc34)c12`, the pKi was 8.46 in experiment [1]; 7.41 in experiment [2]; 7.77 in experiment [3]; 7.64 in experiment [4]; 8.11 in experiment [5].
